{
  "source": "ChEMBL document CHEMBL1126738",
  "about": "“(3SR,4aRS,6RS,8aRS)-6-[2-(1H-tetrazol-5-yl)ethyl]decahydroisoquinoline-3 - carboxylic acid: a structurally novel, systemically active, competitive AMPA receptor antagonist” (J Med Chem, 1993)",
  "target": "Glutamate [NMDA] receptor",
  "assay": "Inhibitory activity against NMDA receptor using [3H]-CGS- 19755 as radioligand",
  "format": "protein-complex assay",
  "data": [
    {"smiles": "O=C(O)[C@@H]1C[C@H]2C[C@@H](CCc3nn[nH]n3)CC[C@H]2CN1", "note": "[TEZAMPANEL ANHYDROUS]", "values": [
      {"measurement": "IC50", "result": 12.1, "unit": "µM"}
    ]}
  ]
}
